Measurements taken from patent US10683333B2, “Islet amyloid polypeptides with improved solubility” (The Research Foundation for The State University of New York, priority 2014, dated 2020).
“Also recorded” adds a separate entry of the source. Where a SMILES comes first, the peptide text is derived from it. Bridges are numbered along the chain shown (N, C = ends).

Key:
[1] = Thioflavin-T fluorescence assay of amyloid formation kinetics; assay type: physicochemical; settings: 20 mM Tris-HCl pH 7.4, 25° C., without stirring
Procedure: Each peptide was dissolved into 100% hexafluoroisoproponal (HFIP) to make a 1.6 mM stock solution. Stock solutions were filtered using […] Acrodisc syringe filter with a GHP membrane and the required amount of peptide was lyophilized overnight to remove HFIP. Dry peptide was dissolved into the appropriate buffer for the fluorescence assays. Thioflavin-T binding assays, conducted without HFIP or stirring at 25° C., were utilized to monitor amyloid formation kinetics. Fluorescence measurements were performed using a Beckman Coulter DTX 880 plate reader with a multimode detector using an excitation wavelength of 430 nm and an emission wavelength of 485 nm. Samples were prepared by dissolving dry peptide into Tris-HCl buffer and thioflavin-T solution immediately before the measurement. The final concentrations were 16 μM hIAPP or 160 μM of each analog and 32 μM thioflavin-T in 20 mM Tris-HCl (pH 7.4). After creating mutant hIAPP polypeptides of the present disclosure, applicants tested the propensity of the different analogs to form amyloid at pH 7.4 using thioflavin-T fluorescence assays. […] Amyloid formation follows a sigmoidal time course consisting of a lag phase in which few, if any, fibrils are formed, followed by a growth phase and a saturation phase in which amyloid fibrils are in equilibrium with soluble peptide.

[2] = Transmission electron microscopy (TEM) of samples at end of kinetic experiments; assay type: physicochemical; settings: aliquots at end of kinetic experiment; 16 μM hIAPP, 160 μM analogs, pH 7.4
Procedure: TEM images were collected at the Life Science Microscopy Center at the State University of New York at Stony Brook. 15 μL aliquots of the samples used for fluorescence assays were removed at the end of each kinetic experiment, blotted on a carbon-coated 200-mesh copper grid for 1 min and then negatively stained with saturated uranyl acetate for 1 min. Samples were further analyzed using TEM and CD.

[3] = assay type: physicochemical; settings: pH 7.4
Procedure: Dry peptides were dissolved into PBS buffer at pH 7.4 at different initial concentrations, and were incubated for 7 days at 25° C. without stirring. Each sample was then centrifuged using a Beckman Coulter Microfuge 22R Centrifuge at 24° C. for 20 min. The relative centrifugal force used was 1.75×10^4 g. Solubility of each sample was approximated by measuring the absorbance of the corresponding supernatant at 280 nm measured using a Beckman Coulter DU 730 UV/Vis Spectrophotometer. All of the peptides contain a single Tyr, 3 Phe and a disulfide bond, thus their extinction coefficients at 280 nm are very similar. The solubility of PM and the mutant hIAPP polypeptides of the present disclosure was analyzed and compared at pH 7.4. Each peptide was incubated in buffer for 7 days at three different concentrations (100 μM, 500 μM and 1 mM) and the solution was then centrifuged. The apparent solubility was represented by the absorbance of the supernatant of each sample measured at 280 nm. […] Additionally, the supernatant of QM sample has a higher absorbance, 0.162, than that of TM-a and PM, 0.103 and 0.112 respectively (FIG. 4A). […] At 1 mM, the absorbance of the soluble fraction of TM-a, TM-b and QM were 1.23, 1.49, and 1.33 respectively, while that value of PM was only 0.354. In comparison, the absorbance of the supernatant of the 1 mM hIAPP was 0.109 (FIGS. 4A-C).

[4] = Far-UV circular dichroism (CD) of aliquots at end of kinetic experiments; assay type: physicochemical; settings: aliquots at end of kinetic experiment, 25° C.
Procedure: Far-UV CD experiments were performed on an Applied Photophysics Chirascan CD spectrophotometer at 25° C. Aliquots from the kinetic experiments were removed at the end of each experiment and the spectra were recorded as the average of three repeats over a range of 190-260 nm, at 1 nm intervals. A 0.1 cm quartz cuvette was used and a background spectrum was subtracted from the data. Samples were further analyzed using TEM and CD.

| Compound | time for amyloid formation to reach the saturation phase ([1]; 16 μM hIAPP) [h] | fibril morphology in TEM images [2] | absorbance of the supernatant at 280 nm (apparent solubility) [3] | secondary structure by CD spectrum [4] | amyloid formation monitored by thioflavin-T fluorescence ([1]; 160 μM peptide, about 140 hrs) | solubility at neutral pH compared with PM / wild-type hIAPP [3] |
| --- | --- | --- | --- | --- | --- | --- |
| CC[C@H](C)[C@H](NC(=O)[C@H](C)NC(=O)CNC(=O)[C@H](Cc1ccccc1)NC(=O)[C@H](CC(N)=O)NC(=O)[C@H](CC(N)=O)NC(=O)[C@H](CO)NC(=O)[C@H](CO)NC(=O)[C@H](Cc1c[nH]cn1)NC(=O)[C@@H](NC(=O)[C@H](CC(C)C)NC(=O)[C@H](Cc1ccccc1)NC(=O)[C@H](CC(N)=O)NC(=O)[C@H](C)NC(=O)[C@H](CC(C)C)NC(=O)[C@H](CCCNC(=N)N)NC(=O)[C@H](CCC(N)=O)NC(=O)[C@@H](NC(=O)[C@H](C)NC(=O)[C@@H]1CSSC[C@H](NC(=O)[C@@H](N)CCCCN)C(=O)N[C@@H](CC(N)=O)C(=O)N[C@@H]([C@@H](C)O)C(=O)N[C@@H](C)C(=O)N[C@@H]([C@@H](C)O)C(=O)N1)[C@@H](C)O)C(C)C)C(=O)N[C@@H](CC(C)C)C(=O)N[C@@H](CO)C(=O)N[C@@H](CO)C(=O)N[C@H](C(=O)N[C@@H](CC(N)=O)C(=O)N[C@H](C(=O)NCC(=O)N[C@@H](CO)C(=O)N[C@@H](CC(N)=O)C(=O)N[C@H](C(=O)N[C@@H](Cc1ccc(O)cc1)C(N)=O)[C@@H](C)O)C(C)C)[C@@H](C)O [hIAPP] | ≤ 40 | typical amyloid fibril morphology | 0.109 | β-sheet structure | – | – |
| CC[C@H](C)[C@H](NC(=O)[C@@H]1CCCN1C(=O)CNC(=O)[C@H](Cc1ccccc1)NC(=O)[C@H](CC(N)=O)NC(=O)[C@H](CC(N)=O)NC(=O)[C@H](CO)NC(=O)[C@H](CO)NC(=O)[C@H](Cc1c[nH]cn1)NC(=O)[C@@H](NC(=O)[C@H](CC(C)C)NC(=O)[C@H](Cc1ccccc1)NC(=O)[C@H](CC(N)=O)NC(=O)[C@H](C)NC(=O)[C@H](CC(C)C)NC(=O)[C@H](CCCNC(=N)N)NC(=O)[C@H](CCC(N)=O)NC(=O)[C@@H](NC(=O)[C@H](C)NC(=O)[C@@H]1CSSC[C@H](NC(=O)[C@@H](N)CCCCN)C(=O)N[C@@H](CC(N)=O)C(=O)N[C@@H]([C@@H](C)O)C(=O)N[C@@H](C)C(=O)N[C@@H]([C@@H](C)O)C(=O)N1)[C@@H](C)O)C(C)C)C(=O)N[C@@H](CC(C)C)C(=O)N1CCC[C@H]1C(=O)N1CCC[C@H]1C(=O)N[C@H](C(=O)N[C@@H](CC(N)=O)C(=O)N[C@H](C(=O)NCC(=O)N[C@@H](CO)C(=O)N[C@@H](CC(N)=O)C(=O)N[C@H](C(=O)N[C@@H](Cc1ccc(O)cc1)C(N)=O)[C@@H](C)O)C(C)C)[C@@H](C)O [PM] | – | no fibrils were found | – | – | flat fluorescence curves; also recorded: do not form amyloid | – |
| CC(C)C[C@H](NC(=O)[C@H](CCCNC(=N)N)NC(=O)[C@H](CCC(N)=O)NC(=O)[C@@H](NC(=O)[C@H](C)NC(=O)[C@@H]1CSSC[C@H](NC(=O)[C@@H](N)CCCCN)C(=O)N[C@@H](CC(N)=O)C(=O)N[C@@H]([C@@H](C)O)C(=O)N[C@@H](C)C(=O)N[C@@H]([C@@H](C)O)C(=O)N1)[C@@H](C)O)C(=O)N[C@@H](C)C(=O)N[C@@H](CC(N)=O)C(=O)N[C@@H](Cc1ccccc1)C(=O)N[C@@H](CC(C)C)C(=O)N[C@H](C(=O)N[C@@H](CCCNC(=N)N)C(=O)N[C@@H](CO)C(=O)N[C@@H](CO)C(=O)N[C@@H](CC(N)=O)C(=O)N[C@@H](CC(N)=O)C(=O)N[C@@H](Cc1ccccc1)C(=O)NCC(=O)N[C@@H](C)C(=O)N1CCC[C@H]1C(=O)N[C@@H](CC(C)C)C(=O)N[C@@H](CO)C(=O)N[C@@H](CO)C(=O)N[C@H](C(=O)N[C@@H](CC(N)=O)C(=O)N[C@H](C(=O)NCC(=O)N[C@@H](CO)C(=O)N[C@@H](CC(N)=O)C(=O)N[C@H](C(=O)N[C@@H](Cc1ccc(O)cc1)C(N)=O)[C@@H](C)O)C(C)C)[C@@H](C)O)C(C)C [DM] (H-KCNTATCATQRLANFLVRSSNNFGAPLSSTNVGSNTY-NH2; disulfide 2-7; N-terminus assumed) | – | – | – | – | – | much better solubility at neutral pH than PM |
